Reference: ChEMBL document CHEMBL4483862, “Open-source discovery of chemical leads for next-generation chemoprotective antimalarials” (2018)

System: Plasmodium berghei
Assay: Luciferase/luciferin-expressing antifolate-resistant parasites were used to infect a culture of HepG2 cells that were pre-incubated with compounds. Infected hepatocytes emit light due to the luciferase reaction. Assay results are presented as the percent inhibition of light emission compared to control. […]
Format: functional
Details: sporozoite; for IC90: read-out: LUCIFERASE INFECTION ASSAY - IC90

CCOc1ccc(-n2c(-c3ccc(Cl)cc3)c[n+]3c2SCC3)cc1
IC50 (HEPG2TOX_HILL_SLOPE 17.5, HEPG2TOX_R_SQUARED 0.639, PBLUC_HILL_SLOPE 3.46, PBLUC_R_SQUARED 0.768, read-out: LUCIFERASE INFECTION ASSAY - IC50): 4.45 µM | IC90: 8.41 µM

O=C(Nc1ccc(SC(F)(F)F)cc1)Nc1ccc(-n2ccc(C(F)(F)F)n2)cc1
IC50 (HEPG2TOX_HILL_SLOPE 17.7, HEPG2TOX_R_SQUARED 0.761, PBLUC_HILL_SLOPE 20.9, PBLUC_R_SQUARED 0.513, read-out: LUCIFERASE INFECTION ASSAY - IC50): 2.42 µM | IC90: 2.69 µM

Cn1nc(-c2ccc(C(=O)Nc3ccccc3)s2)cc1C(F)(F)F
IC50 (HEPG2TOX_HILL_SLOPE 17.1, HEPG2TOX_R_SQUARED 0.873, PBLUC_HILL_SLOPE 3.01, PBLUC_R_SQUARED 0.475, read-out: LUCIFERASE INFECTION ASSAY - IC50): 4.12 µM | IC90: 8.54 µM

CCOc1cc(/C=C2\S/C(=N\C3CCCC3)NC2=O)cc(Br)c1OCC
IC50 (HEPG2TOX_HILL_SLOPE 17, HEPG2TOX_R_SQUARED 0.811, PBLUC_HILL_SLOPE 15.3, PBLUC_R_SQUARED 0.445, read-out: LUCIFERASE INFECTION ASSAY - IC50): 3.41 µM | IC90: 3.94 µM

COc1cc(Nc2nccn3c(-c4ccc(OC(F)(F)F)cc4)cnc23)cc(OC)c1OC
IC50 (HEPG2TOX_HILL_SLOPE 16.8, HEPG2TOX_R_SQUARED 0.492, PBLUC_HILL_SLOPE 4.79, PBLUC_R_SQUARED 0.767, read-out: LUCIFERASE INFECTION ASSAY - IC50): 2.86 µM | IC90: 4.53 µM

Cc1ccnc(NC(=O)Cc2cnn(-c3ccccc3)c2)c1
IC50 (HEPG2TOX_HILL_SLOPE 17.5, HEPG2TOX_R_SQUARED 0.943, PBLUC_HILL_SLOPE 16.3, PBLUC_R_SQUARED 0.0531, read-out: LUCIFERASE INFECTION ASSAY - IC50): 8.7 µM | IC90: 9.95 µM

CCOC(=O)N/N=C(\CC)c1ccc(-c2ccccc2F)cc1
IC50 (HEPG2TOX_HILL_SLOPE 16.9, HEPG2TOX_R_SQUARED 0.877, PBLUC_HILL_SLOPE 3.23, PBLUC_R_SQUARED 0.461, read-out: LUCIFERASE INFECTION ASSAY - IC50): 6.06 µM | IC90: > 10.5 µM

CC(=O)c1c(C)[nH]c(C(=O)Nc2ccc(Oc3ccccc3Cl)cc2)c1C
IC50 (HEPG2TOX_HILL_SLOPE 17, HEPG2TOX_R_SQUARED 0.739, PBLUC_HILL_SLOPE 1.26, 0.690, PBLUC_R_SQUARED 0.562, 0.913, read-out: LUCIFERASE INFECTION ASSAY - IC50): 0.831 µM | IC90: 7.08 µM

COC(=O)c1sccc1Oc1ccc(C(F)(F)F)cc1NS(=O)(=O)c1cc(C(F)(F)F)cc(C(F)(F)F)c1
IC50 (HEPG2TOX_HILL_SLOPE 17.5, HEPG2TOX_R_SQUARED 0.823, PBLUC_HILL_SLOPE 4.85, PBLUC_R_SQUARED 0.307, read-out: LUCIFERASE INFECTION ASSAY - IC50): 1.93 µM | IC90: 3.04 µM

CN1CCN(c2ccc(-c3cn4c(-c5ccc6ncccc6c5)cnc4cn3)cc2)CC1
IC50 (HEPG2TOX_HILL_SLOPE 17, HEPG2TOX_R_SQUARED 0.823, PBLUC_HILL_SLOPE 14.3, PBLUC_R_SQUARED 0.731, read-out: LUCIFERASE INFECTION ASSAY - IC50): 6.63 µM | IC90: 7.74 µM

Cc1cc(C)nc(N/N=C/c2cn(-c3ccccc3)nc2-c2ccc3c(c2)OCCO3)n1
IC50 (HEPG2TOX_HILL_SLOPE 17.9, HEPG2TOX_R_SQUARED 0.773, PBLUC_HILL_SLOPE 3.73, PBLUC_R_SQUARED 0.671, read-out: LUCIFERASE INFECTION ASSAY - IC50): 5.18 µM | IC90: 9.32 µM

C=CCn1c(COc2ccc(CC)cc2)nnc1SCC(=O)/C(C#N)=C(\C)N
IC50 (HEPG2TOX_HILL_SLOPE 17.4, HEPG2TOX_R_SQUARED 0.832, PBLUC_HILL_SLOPE 1.76, PBLUC_R_SQUARED 0.574, read-out: LUCIFERASE INFECTION ASSAY - IC50): 6.67 µM | IC90: > 10 µM

CN1/C(=C\C=N\NC(=O)c2ccccc2NS(=O)(=O)c2cccs2)C(C)(C)c2ccccc21
IC50 (HEPG2TOX_HILL_SLOPE 16.9, HEPG2TOX_R_SQUARED 0.641, PBLUC_HILL_SLOPE 12.4, PBLUC_R_SQUARED 0.659, read-out: LUCIFERASE INFECTION ASSAY - IC50): 1.01 µM | IC90: 1.2 µM

Cc1ccc(NC(=O)c2cccc(-c3ccc(O)cc3)c2)cc1Cl
IC50 (HEPG2TOX_HILL_SLOPE 17.8, HEPG2TOX_R_SQUARED 0.895, PBLUC_HILL_SLOPE 28.1, PBLUC_R_SQUARED 0.516, read-out: LUCIFERASE INFECTION ASSAY - IC50): 3.94 µM | IC90: 4.26 µM

COc1cccc(Nc2nc(-c3ccc(CCC(C)NC(C)=O)cc3)cs2)c1 (configuration not stated)
IC50 (HEPG2TOX_HILL_SLOPE 17.1, HEPG2TOX_R_SQUARED 0.93, PBLUC_HILL_SLOPE 0.895, PBLUC_R_SQUARED 0.745, read-out: LUCIFERASE INFECTION ASSAY - IC50): 0.734 µM | IC90: 8.54 µM

COC(=O)c1c(NC(=O)c2cccnc2)c2cc(NCC3CCCCC3)cnc2n1Cc1ccccc1
IC50 (HEPG2TOX_HILL_SLOPE 17.8, HEPG2TOX_R_SQUARED 0.594, PBLUC_HILL_SLOPE 8.22, PBLUC_R_SQUARED 0.247, read-out: LUCIFERASE INFECTION ASSAY - IC50): 5.43 µM | IC90: > 6.63 µM

CCS(=O)(=O)N1CCC(C(=O)Nc2nnc(-c3cccc([N+](=O)[O-])c3)o2)(c2ccccc2)CC1
IC50 (HEPG2TOX_HILL_SLOPE 16.8, 22.3, HEPG2TOX_R_SQUARED 0.565, 0.956, PBLUC_HILL_SLOPE 8.45, PBLUC_R_SQUARED 0.439, read-out: LUCIFERASE INFECTION ASSAY - IC50): 3.53 µM | IC90: 4.58 µM

COc1cncc(-c2cnn3ccc(Nc4ccc(Oc5ccccc5)cc4)nc23)c1
IC50 (HEPG2TOX_HILL_SLOPE 17.9, HEPG2TOX_R_SQUARED 0.509, PBLUC_HILL_SLOPE 0.505, PBLUC_R_SQUARED 0.666, read-out: LUCIFERASE INFECTION ASSAY - IC50): > 8.06 µM | IC90: > 8.06 µM

CC(C)C(C)CCC(C)C1CC=C2C3CCC4CC(O)CCC4(C)C3CCC21C (configuration not stated)
IC50 (HEPG2TOX_HILL_SLOPE 17.3, HEPG2TOX_R_SQUARED 0.943, PBLUC_HILL_SLOPE 11.3, PBLUC_R_SQUARED 0.846, read-out: LUCIFERASE INFECTION ASSAY - IC50): 0.284 µM | IC90: 0.344 µM

O=C(/C(Br)=C/c1ccc([N+](=O)[O-])cc1)c1ccccc1
IC50 (HEPG2TOX_HILL_SLOPE 17, HEPG2TOX_R_SQUARED 0.837, PBLUC_HILL_SLOPE 13.5, PBLUC_R_SQUARED 0.0643, read-out: LUCIFERASE INFECTION ASSAY - IC50): 9.16 µM | IC90: > 10 µM

Cc1cc(C)c(NC(=O)c2cc(C)on2)c(C)c1
IC50 (HEPG2TOX_HILL_SLOPE 17.1, HEPG2TOX_R_SQUARED 0.826, PBLUC_HILL_SLOPE 16.1, PBLUC_R_SQUARED 0.022, read-out: LUCIFERASE INFECTION ASSAY - IC50): 9.8 µM | IC90: > 10 µM

Cc1cc(CN2CCc3ccccc3C2)c(C)cc1O
IC50 (HEPG2TOX_HILL_SLOPE 17.5, HEPG2TOX_R_SQUARED 0.797, read-out: LUCIFERASE INFECTION ASSAY - IC50): > 10 µM | IC90: > 10 µM

Cc1cc(NC(=O)N2CCN(Cc3ccc(-c4ccccc4Cl)s3)CC2)no1
IC50 (HEPG2TOX_HILL_SLOPE 17.1, HEPG2TOX_R_SQUARED 0.65, PBLUC_HILL_SLOPE 0.759, PBLUC_R_SQUARED 0.724, read-out: LUCIFERASE INFECTION ASSAY - IC50): 1.19 µM | IC90: > 10 µM

CN(C)CCCN1C(=O)N(CCc2ccccc2)C2(CCN(Cc3cn(C)c4ccccc34)CC2)C1=O
IC50 (HEPG2TOX_HILL_SLOPE 17.2, HEPG2TOX_R_SQUARED 0.602, PBLUC_HILL_SLOPE 5.41, PBLUC_R_SQUARED 0.643, read-out: LUCIFERASE INFECTION ASSAY - IC50): 4.13 µM | IC90: 6.2 µM

Cn1c(NCc2ccccc2)nc2cnc(Nc3cccc(Oc4ccccc4)c3)cc21
IC50 (HEPG2TOX_HILL_SLOPE 16.8, HEPG2TOX_R_SQUARED 0.905, PBLUC_HILL_SLOPE 16.2, PBLUC_R_SQUARED 0.526, read-out: LUCIFERASE INFECTION ASSAY - IC50): 3.4 µM | IC90: 3.9 µM

CCCNC(=O)c1c(NC(=O)c2ccc(F)cc2)nc2ccccn12
IC50 (HEPG2TOX_HILL_SLOPE 16.9, HEPG2TOX_R_SQUARED 0.391, PBLUC_HILL_SLOPE 4.88, PBLUC_R_SQUARED 0.525, read-out: LUCIFERASE INFECTION ASSAY - IC50): 3.71 µM | IC90: 5.82 µM

Cn1c(-c2ccccc2)c(/C=N/Nc2ccnc3cc(Cl)ccc23)c2ccccc21
IC50 (HEPG2TOX_HILL_SLOPE 17.0, 5.95, HEPG2TOX_R_SQUARED 0.687, 0.986, PBLUC_HILL_SLOPE 1.29, PBLUC_R_SQUARED 0.592, read-out: LUCIFERASE INFECTION ASSAY - IC50): 1.17 µM | IC90: 6.47 µM

Cc1nc(C2CC2)nc(SC(C)C)c1C#N
IC50 (HEPG2TOX_HILL_SLOPE 17, HEPG2TOX_R_SQUARED 0.522, PBLUC_HILL_SLOPE 1.64, PBLUC_R_SQUARED 0.538, read-out: LUCIFERASE INFECTION ASSAY - IC50): 5.26 µM | IC90: > 10 µM

CCN(CC)c1ccc(Nc2nc(-c3ccncc3)cs2)cc1
IC50 (HEPG2TOX_HILL_SLOPE 17.3, HEPG2TOX_R_SQUARED 0.807, PBLUC_HILL_SLOPE 2.78, PBLUC_R_SQUARED 0.42, read-out: LUCIFERASE INFECTION ASSAY - IC50): 4.75 µM | IC90: > 8.14 µM

Fc1ccc(-c2cc3[nH]c(NCc4ccccc4)nc3cn2)cc1Cl
IC50 (HEPG2TOX_HILL_SLOPE 17.8, HEPG2TOX_R_SQUARED 0.722, PBLUC_HILL_SLOPE 354, PBLUC_R_SQUARED 0.159, read-out: LUCIFERASE INFECTION ASSAY - IC50): 5.38 µM | IC90: 5.42 µM

O=C1C(=O)N(Cc2ccco2)C(=O)N1Cc1ccc(-c2ccccc2)cc1
IC50 (HEPG2TOX_HILL_SLOPE 17.7, HEPG2TOX_R_SQUARED 0.836, PBLUC_HILL_SLOPE 2.05, PBLUC_R_SQUARED 0.957, read-out: LUCIFERASE INFECTION ASSAY - IC50): 4.16 µM | IC90: > 10 µM
